# Experimental data as given in PMC6048268, “Resveratrol Inhibits Key Steps of Steroid Metabolism in a Human Estrogen-Receptor Positive Breast Cancer Model: Impact on Cellular Proliferation” (Frontiers in Pharmacology, 2018).
# What was measured:
# MCF-7 cells [1] = test: Cell proliferation, Casy cell counting, MCF-7; type: cell-based, human; details: 48 h; for cell number: 100 nM hormone precursor
# Method: (§1) MDA-MB-231 and MCF-7 breast cancer cells were purchased from the American Type Culture Collection (ATCC; Manassas, VA, United States) and routinely cultivated at 37°C (95% humidity and 5% CO2) in phenolred-free Dulbecco’s modified Eagle medium F-12 (DMEM/F-12), fortified with 1% PenStrep®-solution and 10% fetal bovine serum (Invitrogen; Thermo Fisher Scientific, Inc., Waltham, MA, United States). All experiments were performed during the exponential growth phase of both cell lines. For the experiments, cells were seeded in 6-well-plates at a density of 1.0 × 10^6 cells per well and allowed to attach for 24 h.
# (§2) Prior to cell counting with a Casy® TT Cell Counter (OLS OMNI Life Science, Bremen, Germany), the supernatant medium was removed and cells were detached using 400 μl TrypLe® solution (Invitrogen). All experiments were performed in triplicate, and the data were reported as the means ± standard deviation of all values.
# MDA-MB-231 cells [2] = details: for decrease of native hormone precursor: MDA-MB-231, 100 nM, 48 h
# Method: (§3) Briefly, cartridges were preconditioned with 2 × 1.0 ml acetonitrile and 3 × 1.0 ml ammonium acetate buffer (10 mM, pH = 5.0), and the samples were loaded onto the columns. After washing with 1 × 1.0 ml ammonium acetate buffer (10 mM, pH = 5.0) and 2 × 1.0 ml acetonitrile/ammonium acetate buffer (10 mM, pH 5.0) 10:90 (v/v), the analytes were eluted using 2 × 650 μl acetonitrile/ammonium acetate buffer (10 mM, pH = 5.0) 95:5 (v/v) and evaporated until dry. Subsequently, samples were reconstituted in 270 μl acetonitrile/ammonium acetate buffer (10 mM, pH = 5.0) 25:75 (v/v) and stored at -80°C until further LC–HRMS analysis.
# (§4) After media collection, cell monolayers were washed five times with 2.0 ml DPBS, detached using 400 μl TrypLE® solution (37°C, 5 min), mixed with 600 μl DPBS and transferred into sample vials. Aliquots of these suspensions (100 μl each) were diluted and counted using the Casy® TT Cell Counter to determine the exact number of cells per sample well. The remaining cell suspensions (900 μl each) were gently centrifuged (1000 rpm, 8 min), and the supernatants were discarded. The cell pellets were subsequently resuspended in 100 μl aqueous ammonium acetate buffer (10 mM, pH = 5.0) and lysed by five freeze-thaw-cycles in liquid nitrogen (3 min each), followed by thawing at ambient temperature. Ammonium acetate buffer (1000 μl) was added, and the suspensions were centrifuged (14000 rpm, 5 min). Subsequently, the supernatants were concentrated using the same SPE protocol as described above. All processed samples were then stored at -80°C until further LC–HRMS analysis. For each condition, three biologically independent experiments were performed; the reported values represent the overall means ± SD of all values.
# (§5) LC was performed with an UltiMate 3000 RSLC-series system coupled to a maXis HD ESI-Qq-TOF mass spectrometer (Bruker Corporation, Bremen, Germany). A Phenomenex Luna® 3 μm C18(2) 100 Å LC column (250 mm × 4.6 mm I.D.; Phenomenex, Inc., Torrance, CA, United States), preceded by a Hypersil® BDS-C18 guard column (5 μm, 10 mm × 4.6 mm I.D.; Thermo Fisher Scientific, Inc.) was used for the separation of the analytes at a flow rate of 1.0 ml/min and a temperature of 43°C. […] The ESI ion source settings were as follows: capillary voltage: -4.5 kV; dry gas flow rate: 8.0 l/min N2; nebulizer: 1.0 bar N2; and dry temperature: 200°C. The ion transfer parameters were set to 400 Vpp funnel RF and 300 Vpp multipole RF, the quadrupole ion energy was 8.0 eV, and the collision cell parameters were as follows: collision RF, 1100 Vpp; collision energy, 10.0 eV; transfer time, 38 μs; and pre-pulse storage, 18 μs. In the range of m/z 150–500, full-scan mass spectra were recorded.
# (§6) The modes of inhibition were subsequently determined from Lineweaver–Burk plots, and the corresponding Ki values were calculated from Dixon plots using GraphPad Prism 6.0.
# MCF-7 cells [3] = details: for decrease of native hormone precursor: MCF-7, 100 nM, 48 h
# Method: as §3, §4, §5, §6
# MDA-MB-231 cells [4] = test: Cell proliferation, Casy cell counting, MDA-MB-231; type: cell-based, human; details: 0–100 nM, 48 h, hormone-deprived
# Method: as §1, §2
# MCF-7 cells [5] = test: Metabolism of RES in MCF-7 cells (HPLC)
# Method: (§7) After 48 h, the cellular media (100 μl) were mixed with 200 μl ice-cold (-20°C) methanol and subsequently centrifuged (14000 rpm, 5 min). The clear supernatants were then diluted 1:1 with aqueous ammonium acetate buffer (5 mM, pH = 7.4), and 80 μl of the samples were injected onto the HPLC column. […] Calibration of the chromatogram was accomplished using the external standard method.
# as §6
# [6] = 0.5–5.0 g/day RES for up to 29 days, healthy subjects; ref Brown et al., 2010; cited from earlier work
# MDA-MB-231 cells [7] = test: Metabolism of RES in MDA-MB-231 cells (HPLC)
# Method: as §7, §6
compound,measurement,setting,value
"C[C@]12CC[C@H](O)CC1=CC[C@@H]1[C@@H]2CC[C@]2(C)C(=O)CC[C@@H]12 [DHEA, dehydroepiandrosterone]",cell number,MCF-7 cells [1],2.69 ± 0.24 × 10^6 cells
same,decrease of native hormone precursor,MDA-MB-231 cells [2],26.8%
same,remaining precursor concentration in the medium,"MDA-MB-231 cells [2]; MDA-MB-231, from 100 nM, after 48 h",73.2 ± 2.5 nM
same,decrease of native hormone precursor,MCF-7 cells [3],54.9%
same,remaining precursor concentration in the medium,"MCF-7 cells [3]; MCF-7, from 100.0 nM, after 48 h",45.1 ± 1.8 nM
same,effect of hormone precursor on cell growth,MDA-MB-231 cells [4],did not further increase cell growth
"C[C@]12CC[C@@H]3c4ccc(O)cc4CC[C@H]3[C@@H]1CCC2=O [E1, estrone]",cell number,MCF-7 cells [1],3.85 ± 0.36 × 10^6 cells
same,stimulation of proliferation,MCF-7 cells [1]; 100 nM,59.8%
same,decrease of native hormone precursor,MDA-MB-231 cells [2],12.3%
same,decrease of native hormone precursor,MCF-7 cells [3],12.9%
same,effect of hormone precursor on cell growth,MDA-MB-231 cells [4],did not further increase cell growth
"O=S(=O)(O)Oc1cc(O)cc(/C=C/c2ccc(O)cc2)c1 [RES-3S, trans-resveratrol-3-O-sulfate]",fold increase of metabolite formation in MCF-7 compared with MDA-MB-231,MCF-7 cells [5],150 fold
same,mean maximum formation rate,"MCF-7 cells [5]; MCF-7, 48 h",340.1 ± 49.4 pmol/10^6 cells/h
same,Vmax,"MCF-7 cells [5]; MCF-7, Michaelis–Menten model",468.4 ± 9.9 pmol/10^6 cells/h
same,Vmax,"MCF-7 cells [5]; MCF-7, substrate inhibition model",501.4 ± 17.1 pmol/10^6 cells/h
same,reduction in metabolite formation,"MCF-7 cells [5]; RES up to 100 μM, substrate inhibition",43.2%
same,levels of metabolite relative to RES,[6],approximately 10 fold
same,maximum metabolite formation rate,"MDA-MB-231 cells [7]; 25 μM RES, 48 h",2.28 ± 0.33 pmol/10^6 cells/h
same,Vmax,"MDA-MB-231 cells [7]; MDA-MB-231, Michaelis–Menten model",3.25 ± 0.44 pmol/10^6 cells/h
same,Vmax,"MDA-MB-231 cells [7]; MDA-MB-231, substrate inhibition model",4.31 ± 0.97 pmol/10^6 cells/h
"O=C(O)C1OC(Oc2ccc(C=Cc3cc(O)cc(O)c3)cc2)C(O)C(O)C1O [RES-4G, trans-resveratrol-4′-O-(β-D-glucuronide)]",formation of RES metabolite,"MCF-7 cells [5]; RES 0–100 μM, 48 h",below the detection limit
same,formation of RES metabolite,"MDA-MB-231 cells [7]; RES 0–100 μM, 48 h",below the detection limit
